Results: patent US4162307A, “Method for anaesthesia by use of a pentapeptide” (priority 1977, dated 1979)
Counter-ions that a name gives are not always drawn.

Experiments:
[1] = tested on: righting, pinnal and corneal reflexes; assay: Anaesthetic effects following intracerebroventricular injection in mice (loss of righting, pinnal and corneal reflexes); assay type: in vivo; conditions: mouse, loss of all three reflexes
[2] = tested on: castor oil-induced diarrhoea; assay: Antidiarrhoeal activity in the rat (castor oil); assay type: in vivo
Procedure: (B) Antidiarrhoeal activity in the rat. In this procedure rats were straved for 24 hours, the peptide then administered either subcutaneously or orally followed after 15 minutes by 1 ml castor oil per rat given orally.
(§1) From the data obtained the respective ED50 figures were calculated (i.e. the dose required to elicit the appropriate effect in 50% of the animals). N.T.: not tested.

[3] = tested on: citric acid aerosol-induced coughs; assay: Antitussive testing, citric acid aerosol; assay type: in vivo, guinea-pigs
Procedure: J. Pharmacol, 39, (1970) 225.
(C) For antitussive testing, guinea-pigs are subjected to an aerosol containing 20% citric acid, 30 minutes after administration of compound (orally or subcutaneously). The number of coughs during a five minute exposure are counted and meaned for six animals per treatment. The method is that described by Boura, A. L. A., Green, A. F. and Saunders, I. A. Br. J. Pharmac., May 1970, Vol. 39, No. 1, page 225.
as §1

[4] = tested on: righting, pinnal and corneal reflexes; assay: Anaesthetic effects tested intravenously; assay type: in vivo, mice; conditions: loss of all three reflexes
Procedure: (D) Compounds are tested for anaesthetic effects following intracerebroventricular injection in mice. The animals are observed for loss of righting reflex (failure to roll over within 10 seconds of being turned on their backs), loss of pinnal reflex (failure to flick the ear in response to a light touch at the base of the pinna) and loss of corneal reflex (failure to blink when the cornea is touched lightly). Loss of all three reflexes constitutes anaesthesia. In addition, any other effects are noted. […] Interesting compounds are then tested intravenously in the same manner.
as §1

mouse hot plate = assay: Analgesia in mice in the hot plate test; assay type: in vivo
Procedure: (A) Analgesia in mice in the hot plate test (modification of the method of Eddy, N. B. et al., J. Pharm. Exp. Therap. (1953) 107, 385, the peptide being administered by intracerebroventricular injection).
as §1

[5] = tested on: righting, pinnal and corneal reflexes; assay: Anaesthesia in laboratory animals (abolition of reflexes), standard pharmacological procedures; assay type: in vivo, rats and mice
[6] = tested on: isolated mouse vas deferens; assay: Neurally evoked contractions of the isolated mouse vas deferens
[7] = tested on: isolated guinea-pig ileum; assay: Electrically-induced contractions of the isolated guinea-pig ileum; conditions: 0.1 Hz; 0.4 ms; 30-40 V
Text: (Each intestinal segment was impaled by the anode and suspended with a 2-3 g load. Stimulus parameters: frequency: 0.1 Hz; duration: 0.4 ms; voltage (supramaximal) 30-40 V; the contractions were transduced isotonically).

CCNC(=O)[C@@H](CC(C)C)NC(=O)[C@H](Cc1ccccc1)NC(=O)CNC(=O)[C@@H](C)NC(=O)[C@@H](N)Cc1ccc(O)cc1 [H.Tyr.D-Ala.Gly.Phe.D-Leu.NHEt hydrochloride]
ED50 anaesthesia i.c.v. [1]: 2.8 μg/mouse
ED50 anti-diarrhoea ([2]; rat, s.c., castor oil 1 ml orally 15 minutes after peptide): 10 mg/kg
ED50 antitussive ([3]; guinea-pig, 20% citric acid aerosol 30 minutes after administration, route not printed in table (orally or subcutaneously)): 2.0 mg/kg
ED50 anaesthesia i.v. [4]: 20 mg/kg
ED50 mouse hot plate, analgesia (mouse hot plate; i.c.v., dose eliciting the effect in 50% of the animals): 0.03 μg/mouse

CN1CC[C@]23c4c5ccc(O)c4O[C@H]2[C@@H](O)C=C[C@H]3[C@H]1C5 [morphine, reference compound]
Effect on the righting reflex, morphine by acute bolus injection ([5]; mice, acute bolus injection in up to lethal doses): does not abolish the righting reflex

CCNC(=O)[C@@H](CC(C)C)NC(=O)[C@H](Cc1ccccc1)NC(=O)CNC(=O)[C@@H](C)NC(=O)[C@@H](N)Cc1ccc(O)cc1 [peptide of formula (I), h.tyr.D-Ala.Gly.Phe.D-Leu.NHEt]
Antidiarrhoeal activity ([2]; rats, castor oil-induced diarrhoea): effective in reducing castor oil-induced diarrhoea
Naloxone sensitivity of vas deferens inhibition ([6]; naloxone): abolished by the known narcotic antagonist naloxone
Effect on neurally evoked contractions of isolated mouse vas deferens ([6]; pulses at 0.1 Hz): Inhibition of neurally evoked contractions
Antitussive activity ([3]; guinea-pigs): exhibits antitussive activity
Effect on electrically-induced contractions of isolated guinea-pig ileum [7]: Reduction of electrically-induced contractions
Naloxone sensitivity of analgesic activity (mouse hot plate; mice, hot plate, naloxone): abolished by naloxone
Analgesic activity, hot plate (mouse hot plate; mice, intracerebroventricular injection): exhibits analgesic activity
Reversal of reflex-abolishing effects by naloxone ([5]; effects (i), (ii) and (iii), naloxone administered): may be reversed by administration of the known narcotic antagonist naloxone
Effect on the corneal reflex ([5]; laboratory animals): Abolition of the corneal reflex
Effect on the pinnal reflex ([5]; laboratory animals): Abolition of the pinnal reflex
Effect on the righting reflex ([5]; laboratory animals): Abolition of the righting reflex
Induction and maintenance of anaesthesia ([5]; rats and mice, parenteral, e.g. intravenous or intracerebroventricular injection): both to induce and to maintain anaesthesia
